Source: patent US9012439B2, “Use of electrophilic compounds for inducing platelet production or maintaining platelet function” (University of Rochester, priority 2007, dated 2015)

Legend:
Dami cells = assay: Platelet production from Dami cells (flow cytometry); assay type: cell-based; conditions: 10 μM, 24 h
Experimental: Meg-01 and M07e cells were purchased from the American Type Culture Collection (Rockville, Md.) and Dami cells were a generous gift from Dr. Patricia J. Simpson-Haidaris (University of Rochester). All cells were cultured in RPMI-1640 tissue culture medium (Invitrogen) supplemented with 5% fetal bovine serum (FBS; Invitrogen), 10 mM HEPES (N-2-hydroxyethylpiperazine-N′-2-ethanesulfonic acid; Sigma), 2 mM L-glutamine (Invitrogen), 4.5 g/L glucose (Invitrogen), and 50 μg/mL gentamicin (Invitrogen). M07e cells were also supplemented with 100 ng/mL of granulocyte monocyte-colony stimulating factor (GM-CSF, R&D Systems). All treatments were performed in normal growth media. Dimethyl sulfoxide (DMSO) was used as a vehicle (control) in the experiments described below.
Platelets were isolated from megakaryocytes by centrifugation at 150 xg for 10 min. Supernatants underwent sequential centrifugation (500 xg for 10 min and 1000×g for 10 min). The remaining platelet pellet was fixed then permeabilized with a CD61 or CD41 antibody. 7-AAD (BD Pharmingen) was added for 10 min before analyzing the cells by flow cytometry. […]

Meg-01 cells = assay: Meg-01 morphology (phalloidin f-actin staining, transmission electron microscopy); assay type: cell-based, human; conditions: 10 μM
Experimental: Cells were fixed and permeabilized with 0.1% triton-100 for 1 h at room temperature (RT). Subsequently, cells were blocked with 1% bovin serum albumin (BSA) in PBS-Tween 20 (0.1%) for 1 h at RT then stained with phalloidin-Alexa Fluor 488 (Invitrogen, 1:200) at RT for 2 h. Cells were mounted and visualized using an Olympus BX51 light microscope (Olympus, Melville, N.Y.).
Cells were fixed for 4 h in 2.5% glutaraldehyde in 0.1 M sodium cacodylate buffer. Post-fixation cells were placed in 1% osmium tetroxide in phosphate buffer, dehydrated in ethanol, embedded in EPON/Araldite epoxy resin and analyzed on a Hitachi H-7100 electron microscope.

[1] = test system: mouse bone marrow culture-derived platelets; assay: Function of mouse bone marrow culture-derived platelets (collagen response, spreading on fibrinogen); assay type: cell-based, mouse (C57BL/6)
Experimental: (§1) Platelets were isolated from the Meg-01 cells and human blood as described above. Both normal human platelets and Meg-01-derived platelets were stained with annexin V-FITC then treated with 10 μg/ml of collagen for 15 min. Cells were analyzed for collagen-induced annexin V binding and change in size and shape by flow cytometry. Platelets were isolated from primary human megakaryocytes and primary mouse megakaryocytes as described above. Primary human platelets were stained with CD41-FITC and primary mouse platelets were stained with CD61-PE then treated with 10 μg/mL of collagen. Cells were analyzed for collagen-induced CD61/CD41 upregulation and change in size and shape using flow cytometry.
(§2) Coverslips were coated with 100 μg/mL of fibrinogen for 1 h and blocked with 0.5 mg/mL BSA for 1 h. Platelets were added to the fibrinogen-coated coverslips in Tyrode's buffer and fixed with glutaraldehyde, post-fixed with 1% osmium tetroxide, and dehydrated. Platelets were then coated with a gold/palladium film. Images were acquired using the Zeiss-Leo 982 FE-SEM (scanning electron microscope).

[2] = test system: human culture-derived platelets; assay: Function of human culture-derived platelets (collagen response, spreading on fibrinogen); assay type: cell-based
Experimental: as §1, §2

C57BL/6 mice = assay: Circulating platelet number in unirradiated mice; assay type: in vivo, mouse (C57BL/6); conditions: unirradiated mice, 1 mg/kg IV for 4 consecutive days
Experimental: Seven or 8-week-old male C57BL/6 mice (Jackson Laboratories) were either exposed to 5 Gy cesium (Cs^137) total body irradiation (TBI) using a Model 8114 6000 Curie Shepherd Cs^137 irradiator (approximately 3200 Curie sealed Cs^137 source) with a dose rate of […] or left unexposed. Mice (n=4) received intravenous injections of vehicle (8% DMSO) or 15d-PGJ2 (1 mg/kg) or CDDO-Me (250 μg/kg) for 4 consecutive days from day 1 (days 1, 2, 3 and 4 post-irradiation). Blood was obtained from the aorta or the orbital sinus. Platelets were counted prior to radiation exposure and after radiation exposure on day 10, day 22, and day 31 in Example 7, or days 4, 10, 16, and 21 in Example 9 using the Heska® CBC-Diff™ Veterinary Analyzer (Fort Collins, Colo.). Data are expressed as average platelet counts from two separate experiments. For the unirradiated mice, platelets were counted on day 4, day 10, and day 15 in Example 7 or on the same days in Example 9.

SMILES: CCCCCC=CC=C1C(=O)C=C[C@@H]1CC=CCCCC(=O)O [15d-PGJ2, 15-deoxy-Δ^12,14 prostaglandin J2]
- platelet production (Dami cells): increased platelet production
- morphological changes by f-actin (phalloidin) staining (Meg-01 cells; within 1-2 h): Morphological changes, characteristic of megakaryopoiesis
- structural characteristics by transmission electron microscopy (Meg-01 cells; within 24 h): structural characteristics consistent with differentiating cells
- platelet spreading on fibrinogen ([1]; mouse bone marrow culture-derived platelets, fibrinogen coated slide): spread in response to fibrinogen
- geometric mean fluorescence intensity of surface CD41, after collagen treatment ([1]; platelets from mouse bone marrow cultures treated with 15d-PGJ2, collagen 10 μg/mL, 15 min): 20
- geometric mean fluorescence intensity of surface CD41, before collagen ([1]; platelets from mouse bone marrow cultures treated with 15d-PGJ2, no collagen): 9
- platelet spreading on fibrinogen ([2]; human culture-derived platelets, fibrinogen coated slide): spread in response to fibrinogen
- geometric mean fluorescence intensity of surface CD61, after collagen treatment ([2]; platelets from CD61+ cell cultures treated with 15d-PGJ2, collagen 10 μg/mL, 15 min): 20
- geometric mean fluorescence intensity of surface CD61, before collagen ([2]; platelets from CD61+ cell cultures treated with 15d-PGJ2, no collagen): 5
- platelet numbers compared with vehicle (C57BL/6 mice): higher platelet numbers
